For six molecules, zone of inhibition, IC50 and inhibition zone (IZ) results are on record in ChEMBL document CHEMBL2203267, “Synthesis, antioxidant and antimicrobial activity of novel vanillin derived piperidin-4-one oxime esters: preponderant role of the phenyl ester substituents on the piperidin-4-one oxime core” (Bioorg Med Chem Lett, 2012).

Assay [1] relates to Candida albicans. Nature of the assay: Antifungal activity against Candida albicans MTCC 3017 at 500 ug/mL after 72 hrs by well plate method. The format is functional. The conditions noted are these: MTCC 3017, 72 h, read-out: DIZ.
In assay [2] the test system is Pseudomonas aeruginosa. Nature of the assay: Antibacterial activity against Pseudomonas aeruginosa ATCC 27853 at 1000 ug/mL after 24 hrs by well plate method. Particulars: ATCC 27853, 24 h, read-out: DIZ. The format is functional.
The test system of assay [3] is Staphylococcus aureus. Nature of the assay: Antibacterial activity against Staphylococcus aureus ATCC 25923 at 1000 ug/mL after 24 hrs by well plate method. The conditions noted are these: ATCC 25923, 24 h, read-out: DIZ. The format is functional.
For assay [4], the system named is Liver microsomes. Nature of the assay: Antioxidant activity in Wistar rat liver microsomes assessed as inhibition of lipid peroxidation after 60 mins by UV-vis spectrophotometric analysis. The format is functional, Microsome.
Assay [5] has as its system Staphylococcus aureus. As to the kind of experiment: Antibacterial activity against Staphylococcus aureus ATCC 25923 at 500 ug/mL after 24 hrs by well plate method. The format is functional. Particulars: ATCC 25923, 24 h, read-out: DIZ.
Assay [6] deals with Candida albicans. As to the kind of experiment: Antifungal activity against Candida albicans MTCC 3017 at 1000 ug/mL after 72 hrs by well plate method. The format is functional. The conditions noted are these: MTCC 3017, 72 h, read-out: DIZ.
The subject of assay [7] is Pseudomonas aeruginosa. As to the kind of experiment: Antibacterial activity against Pseudomonas aeruginosa ATCC 27853 at 500 ug/mL after 24 hrs by well plate method. The format is functional. Particulars: ATCC 27853, 24 h, read-out: DIZ.
A short description of assay [8]: Antioxidant activity assessed as ABTS+ radical scavenging activity after 30 mins by UV-vis spectrophotometric analysis. The format is functional.
Assay [9] deals with Radical scavenging activity. As to the kind of experiment: Antioxidant activity assessed as DPPH radical scavenging activity after 20 mins by UV-vis spectrophotometric analysis. Type of assay: functional.
Assay [10] can be described thus: Antifungal activity against Chrysosporium keratinophilum MTCC 2827 at 1000 ug/mL after 72 hrs by well plate method. The format is functional.
In assay [11] the test system is Aspergillus flavus. Nature of the assay: Antifungal activity against Aspergillus flavus MTCC 3306 at 500 ug/mL after 72 hrs by well plate method. Type of assay: functional. Particulars: MTCC 3306, 72 h, read-out: DIZ.
Assay [12] concerns Escherichia coli. As to the kind of experiment: Antibacterial activity against Escherichia coli ATCC 25922 at 1000 ug/mL after 24 hrs by well plate method. The conditions noted are these: ATCC 25922, 24 h, read-out: DIZ. The format is functional.
Assay [13] has as its system Escherichia coli. As to the kind of experiment: Antibacterial activity against Escherichia coli ATCC 25922 at 500 ug/mL after 24 hrs by well plate method. The format is functional. The conditions noted are these: ATCC 25922, 24 h, read-out: DIZ.
Assay [14] can be described thus: Antifungal activity against Chrysosporium keratinophilum MTCC 2827 at 500 ug/mL after 72 hrs by well plate method. Type of assay: functional.
Assay [15] concerns Aspergillus flavus. Nature of the assay: Antifungal activity against Aspergillus flavus MTCC 3306 at 1000 ug/mL after 72 hrs by well plate method. The conditions noted are these: MTCC 3306, 72 h, read-out: DIZ. Type of assay: functional.

For `COc1ccc(C(=O)ON=C2CC(c3ccc(O)c(OC)c3)N(C)C(c3ccc(O)c(OC)c3)C2)cc1` (stereo not given), the zone of inhibition at 500 µg/mL was determined as 5 mm in assay [1]; 2 mm in assay [5]; 3 mm in [7]; 5 mm in assay [11]; 2 mm in assay [13]. The zone of inhibition at 1000 µg/mL in assay [2] stood at 4 mm; in assay [3] it was 4 mm; in assay [6] it was 7 mm; in assay [12] it was 3 mm; in [15], 6 mm. Besides, the figures for the IC50 in assay [4], in [8] and in assay [9] were 40 µM, 33 µM and 28 µM, respectively. Moreover, the inhibition zone (IZ) in [10] and in assay [14] was 4 mm throughout.
`COc1cc(C2CC(=NOC(=O)c3ccc(Cl)cc3)CC(c3ccc(O)c(OC)c3)N2C)ccc1O` (stereo not given): the zone of inhibition at 500 µg/mL in [1] worked out at 16 mm; in [5], 9 mm; in [7], 12 mm; in assay [11] it was 12 mm; in [13], 12 mm. Further, the zone of inhibition at 1000 µg/mL in assay [2] is 15 mm; in assay [3] it was 13 mm; in assay [6], 19 mm; in [12], 17 mm; in assay [15], 15 mm. Besides, the IC50 in assay [4] came out at 121 µM; in [8], 112 µM; in [9], 110 µM. Also, the values for the inhibition zone (IZ) in assay [10] and in assay [14] were 10 mm and 12 mm, respectively.
`COc1ccc(C(=O)ON=C2CC(c3ccc(O)c(OC)c3)N(C)C(c3ccc(O)c(OC)c3)C2)c(OC)c1` (stereo not given): the zone of inhibition at 500 µg/mL in assay [1] turned out to be 4 mm; in [5], 3 mm; in assay [7], 6 mm; in [11], 4 mm; in [13], 4 mm. Besides, the zone of inhibition at 1000 µg/mL in assay [2] amounted to 6 mm; in [3], 5 mm; in assay [6] it was 6 mm; in assay [12], 6 mm; in assay [15], 5 mm. Besides, the IC50 is 52 µM in assay [4], 41 µM in assay [8] and 32 µM in assay [9]. Further, the inhibition zone (IZ) in assay [10] is 5 mm; in assay [14] it was 4 mm.
As for `COc1cc(C2CC(=NOC(=O)c3ccc(F)cc3)CC(c3ccc(O)c(OC)c3)N2C)ccc1O` (stereo not given), the zone of inhibition at 500 µg/mL turned out to be 18 mm in [1]; 13 mm in assay [5]; 13 mm in assay [7]; 13 mm in assay [11]; 13 mm in [13]. Besides, the zone of inhibition at 1000 µg/mL was 16 mm in [2]; 15 mm in assay [3]; 20 mm in [6]; 18 mm in [12]; 17 mm in assay [15]. The IC50 in assay [4] was 140 µM; in assay [8] it was 141 µM; in assay [9] it was 133 µM. Moreover, the inhibition zone (IZ) in assay [10] was determined as 12 mm; in assay [14], 14 mm.
Consider `COc1cc(C2CC(=NOC(=O)c3cc(OC)c(OC)c(OC)c3)CC(c3ccc(O)c(OC)c3)N2C)ccc1O` (stereo not given), for which the zone of inhibition at 500 µg/mL in assay [1] came to 3 mm; in assay [5], 4 mm; in assay [7] it was 3 mm; in assay [11] it was 4 mm; in assay [13], 4 mm. Also, the zone of inhibition at 1000 µg/mL in [2] worked out at 5 mm; in [3] it was 6 mm; in assay [6] it was 3 mm; in assay [12], 5 mm; in [15], 3 mm. Moreover, the IC50 in assay [4] worked out at 61 µM; in assay [8], 53 µM; in [9] it was 40 µM. Also, the inhibition zone (IZ) was 6 mm in [10] and 3 mm in assay [14].
In the case of `COc1cc(C2CC(=NOC(=O)c3ccc(Br)cc3)CC(c3ccc(O)c(OC)c3)N2C)ccc1O` (stereo not given), the zone of inhibition at 500 µg/mL turned out to be 8 mm in assay [1]; 7 mm in assay [5]; 7 mm in [7]; 5 mm in assay [11]; 7 mm in assay [13]. For the same molecule, the zone of inhibition at 1000 µg/mL in assay [2] was found to be 9 mm; in [3] it was 9 mm; in assay [6], 9 mm; in assay [12] it was 11 mm; in assay [15] it was 6 mm. Besides, the IC50 in assay [4] came out at 112 µM; in assay [8], 108 µM; in [9] it was 103 µM. Further, the figures for the inhibition zone (IZ) in assay [10] and in assay [14] were 7 mm and 5 mm, respectively.
